Measured values: patent US12466821B2 (Novartis AG, priority 2018, dated 2025)

Key:
[1] = target: human CMV DNA polymerase UL54 (Human cytomegalovirus (strain AD169) (HHV-5) (Human herpesvirus 5), UniProt P08546); assay: CMV polymerase biochemical assay (molecular beacon-based)
In short: (§1)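 Full-length wild-type N-terminal MBP-fusion polymerases from sf9 cells were used at 100 pM (CMV) or 625 pM (HSV) in Tris pH 7.5, 10 mM MgCl2, and preincubated with inhibitor for 30 min at RT. Reactions with 1.25 uM each dNTP, 200 nM primer and 100 nM molecular beacon ran 60 min (CMV) or 20 min (HSV) at RT. Fluorescence was read at 480/535 nm and IC50 derived.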

[2] = test system: Luciferase-encoding HCMV, AD169 strain; assay: CMV Luciferase assay (cellular herpesvirus replication); format: cell-based; details: Human betaherpesvirus 5, AD169, read-out: CMV-Luc Cellular EC50
In short: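 Reporter HCMV AD169 with luciferase driven by late pp28 promoter, so signal requires viral DNA replication; NN-NHDF fibroblasts in 2% FBS medium, compound (0.0159–50 or 0.00318–10 μM, 0.5% DMSO) added 1 h before infection at MOI 1. Luminescence read 72 hpi; EC50 from 4-parameter fit of control-normalized %.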

[3] = target: human HSV DNA polymerase UL30 (Human herpesvirus 1 (strain 17) (HHV-1) (Human herpes simplex virus 1), UniProt P04293); assay: HSV polymerase biochemical assay (molecular beacon-based)
In short: as §1

Compound	IC50 [1] [nM]	EC50 [2] [nM]	IC50 [3] [nM]
N#Cc1ccc(CNC(=O)c2cc(F)c3n(c2=O)CCN(CC2(S(=O)(=O)C4CC4)CC2)C3=O)cc1F [Example 162]	1.9	41.3	79.6
O=C(NCc1ccc(Cl)cc1)c1cc(F)c2n(c1=O)CCN(CCN1CCCS1(=O)=O)C2=O [Example 163]	23.2	370	141
CS(=O)(=O)C1(CN2CCn3c(c(F)cc(C(=O)NCc4ccc(C#N)cc4)c3=O)C2=O)CC1 [Example 164]	13	249	305
CN(C1(CN2CCn3c(c(F)cc(C(=O)NCc4ccc(Cl)cc4)c3=O)C2=O)CC1)S(C)(=O)=O [Example 166]	173	10000	7700
COC1(CN2CCn3c(ccc(C(=O)NCc4ccc(Cl)cc4)c3=O)C2=O)CC1 [Example 171, N-(4-chlorobenzyl)-2-((1-methoxycyclopropyl)methyl)-1,6-dioxo-1,3,4,6-tetrahydro-2H-pyrido[1,2-a]pyrazine-7-carboxamide]	72.9	637	2800
CN(C)C(=O)OC1(CN2CCn3c(ccc(C(=O)NCc4ccc(Cl)cc4)c3=O)C2=O)CC1 [Example 172, 1-((7-((4-chlorobenzyl)carbamoyl)-1,6-dioxo-1,3,4,6-tetrahydro-2H-pyrido[1,2-a]pyrazin-2-yl)methyl)cyclopropyl dimethyl carbamate]	2400	10000	71000
CS(=O)(=O)CC1(CN2CCn3c(ccc(C(=O)NCc4ccc(Cl)cc4)c3=O)C2=O)CC1 [Example 173, N-(4-chlorobenzyl)-2-((1-((methylsulfonyl)methyl)cyclopropyl)methyl)-1,6-dioxo-1,3,4,6-tetrahydro-2H-pyrido[1,2-a]pyrazine-7-carboxamide]	20.6	364	232
CN(C1(CN2CCn3c(ccc(C(=O)NCc4ccc(Cl)cc4)c3=O)C2=O)CC1)S(C)(=O)=O [Example 174]	64.3	4200	2680
CC(C)(C(=O)O)S(=O)(=O)C1(CN2CCn3c(ccc(C(=O)NCc4ccc(Cl)cc4)c3=O)C2=O)CC1 [Example 175, 2-((1-((7-((4-chlorobenzyl)carbamoyl)-1,6-dioxo-1,3,4,6-tetrahydro-2H-pyrido[1,2-a]pyrazin-2-yl)methyl)cyclopropyl)sulfonyl)-2-methylpropanoic acid]	0.8	6050	24.4
CC(C)(C(=O)NS(C)(=O)=O)S(=O)(=O)C1(CN2CCn3c(ccc(C(=O)NCc4ccc(Cl)cc4)c3=O)C2=O)CC1 [Example 176, N-(4-chlorobenzyl)-2-((1-((2-methyl-1-(methylsulfonamido)-1-oxopropan-2-yl)sulfonyl)cyclopropyl)methyl)-1,6-dioxo-1,3,4,6-tetrahydro-2H-pyrido[1,2-a]pyrazine-7-carboxamide]	4.6	7230	61.9
CC(C)(C(N)=O)S(=O)(=O)C1(CN2CCn3c(ccc(C(=O)NCc4ccc(Cl)cc4)c3=O)C2=O)CC1 [Example 177, 2-((1-((1-amino-2-methyl-1-oxopropan-2-yl)sulfonyl)cyclopropyl)methyl)-N-(4-chlorobenzyl)-1,6-dioxo-1,3,4,6-tetrahydro-2H-pyrido[1,2-a]pyrazine-7-carboxamide]	1.5	12.4	18.1
CC(C)(c1ncno1)S(=O)(=O)C1(CN2CCn3c(ccc(C(=O)NCc4ccc(Cl)cc4)c3=O)C2=O)CC1 [Example 178, 2-((1-((2-(1,2,4-oxadiazol-5-yl)propan-2-yl)sulfonyl)cyclopropyl)methyl)-N-(4-chlorobenzyl)-1,6-dioxo-1,3,4,6-tetrahydro-2H-pyrido[1,2-a]pyrazine-7-carboxamide]	0.3	43.4	10
CC(C)(c1ncno1)S(=O)(=O)C1(CN2CCn3c(ccc(C(=O)NCc4ccc(C#N)cc4)c3=O)C2=O)CC1 [Example 179]	0.4	125	16.9
CC(C)(CO)S(=O)(=O)C1(CN2CCn3c(ccc(C(=O)NCc4ccc(Cl)cc4)c3=O)C2=O)CC1 [Example 180, N-(4-chlorobenzyl)-2-((1-((1-hydroxy-2-methylpropan-2-yl)sulfonyl)cyclopropyl)methyl)-1,6-dioxo-1,3,4,6-tetrahydro-2H-pyrido[1,2-a]pyrazine-7-carboxamide]	0.2	6.2	22.7
CC(C)(CN)S(=O)(=O)C1(CN2CCn3c(ccc(C(=O)NCc4ccc(Cl)cc4)c3=O)C2=O)CC1 [Example 181, 2-((1-((1-amino-2-methylpropan-2-yl)sulfonyl)cyclopropyl)methyl)-N-(4-chlorobenzyl)-1,6-dioxo-1,3,4,6-tetrahydro-2H-pyrido[1,2-a]pyrazine-7-carboxamide]	1.1	5.1	37.4
CC(C)(CO)S(=O)(=O)C1(CN2CCn3c(ccc(C(=O)NCc4ccc(Cl)nc4)c3=O)C2=O)CC1 [Example 182]	2.7	48.3	38.6
CC(C)(CO)S(=O)(=O)C1(CN2CCn3c(ccc(C(=O)NCc4ccc(C#N)nc4)c3=O)C2=O)CC1 [Example 183]	2.9	145	36.7

Compound	IC50 [1] [nM]	EC50 [2] [nM]	IC50 [3] [nM]
CC(C)(CN)S(=O)(=O)C1(CN2CCn3c(ccc(C(=O)NCc4ccc(C#N)cc4)c3=O)C2=O)CC1 [Example 184]	3.9	31.6	60.3
CC(C)(C#N)S(=O)(=O)C1(CN2CCn3c(ccc(C(=O)NCc4ccc(Cl)cc4)c3=O)C2=O)CC1 [Example 185, N-(4-chlorobenzyl)-2-((1-((2-cyanopropan-2-yl)sulfonyl)cyclopropyl)methyl)-1,6-dioxo-1,3,4,6-tetrahydro-2H-pyrido[1,2-a]pyrazine-7-carboxamide]	1.2	18.9	29.5
CC(C)(c1nnn[nH]1)S(=O)(=O)C1(CN2CCn3c(ccc(C(=O)NCc4ccc(Cl)cc4)c3=O)C2=O)CC1 [Example 186, 2-((1-((2-(1H-tetrazol-5-yl)propan-2-yl)sulfonyl)cyclopropyl)methyl)-N-(4-chlorobenzyl)-1,6-dioxo-1,3,4,6-tetrahydro-2H-pyrido[1,2-a]pyrazine-7-carboxamide]	1.2	6660	20.5
COCC(C)(C)S(=O)(=O)C1(CN2CCn3c(ccc(C(=O)NCc4ccc(C#N)cc4)c3=O)C2=O)CC1 [Example 187]	0.4	14.9	52.9
COC1(S(=O)(=O)C2(CN3CCn4c(ccc(C(=O)NCc5ccc(C#N)cc5)c4=O)C3=O)CC2)CC1 [Example 189]	1.1	55.7	59.8
COC1(S(=O)(=O)C2(CN3CCn4c(ccc(C(=O)NCc5ccc(C#N)c(F)c5)c4=O)C3=O)CC2)CC1 [Example 190]	1.4	47.8	66.5
CC(CN1CCn2c(ccc(C(=O)NCc3ccc(Cl)cc3)c2=O)C1=O)S(=O)(=O)C1CC1 (stereo not drawn) [Example 191]	76.5	3460	5460
CC(CN1CCn2c(ccc(C(=O)NCc3ccc(C#N)cc3)c2=O)C1=O)S(=O)(=O)C1CC1 (stereo not drawn) [Example 192]	194	8050	3010
O=C(NCc1ccc(Cl)cc1)c1ccc2n(c1=O)CCN(CCS(=O)(=O)C1CC1)C2=O [Example 193]	34.1	1240	420
N#Cc1ccc(CNC(=O)c2ccc3n(c2=O)CCN(CCS(=O)(=O)C2CC2)C3=O)cc1 [Example 194]	103	4220	855
N#Cc1ccc(CNC(=O)c2ccc3n(c2=O)CCN(CCS(=O)(=O)C2CC2)C3=O)cc1F [Example 195]	67.1	2610	649
N#Cc1ccc(CNC(=O)c2ccc3n(c2=O)CCN(CC2(S(=O)(=O)C4(O)CC4)CC2)C3=O)cc1 [Example 196, N-(4-cyanobenzyl)-2-((1-((1-hydroxycyclopropyl)sulfonyl)cyclopropyl)methyl)-1,6-dioxo-1,3,4,6-tetrahydro-2H-pyrido[1,2-a]pyrazine-7-carboxamide]	7.7	509	205
CS(=O)(=O)NC1(CN2CCn3c(ccc(C(=O)NCc4ccc(Cl)cc4)c3=O)C2=O)CC1 [Example 198]	37.2	1680	1500
CCS(=O)(=O)NC1(CN2CCn3c(ccc(C(=O)NCc4ccc(Cl)cc4)c3=O)C2=O)CC1 [Example 199]	53.7	1720	1110
O=C(NCc1ccc(Cl)cc1)c1ccc2n(c1=O)CCN(CC1(NS(=O)(=O)C3CC3)CC1)C2=O [Example 200]	232	6770	2560
O=C(NCc1ccc(Cl)cc1)c1ccc2n(c1=O)CCN(CC1(N3CCCC3=O)CC1)C2=O [Example 201, N-(4-chlorobenzyl)-1,6-dioxo-2-((1-(2-oxopyrrolidin-1-yl)cyclopropyl)methyl)-1,3,4,6-tetrahydro-2H-pyrido[1,2-a]pyrazine-7-carboxamide]	182	4810	4060
